{"source": "the supplement of paper PMC4862054", "key": {"[1]": {"system": "BT-549", "assay": "drug sensitivity score (DSS), CellTiter-Glo (DSS (AUC-based score)); higher = stronger drug effect (viability inhibition or cytotoxicity); extreme values may be limits of the assay", "settings": "incubation time: 72 h", "summary_of_the_method": "(§1)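 Plates with 384 wells held compound at 5 concentrations in 10-fold steps over a 10,000-fold range specific to each compound. Breast cancer cell lines were added in 20 µl suspension and incubated 72 h, then read for CellTox Green and CellTiter-Glo signals, with each plate normalised to 0.1 % DMSO and a positive kill control. The drug sensitivity score is based on the area under the fitted dose-response curve.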"}, "[2]": {"system": "MCF-10A", "assay": "drug sensitivity score (DSS), CellTiter-Glo (DSS (AUC-based score)); higher = stronger drug effect (viability inhibition or cytotoxicity); extreme values may be limits of the assay", "settings": "incubation time: 72 h", "summary_of_the_method": "as §1"}, "[3]": {"system": "MFM-223", "assay": "drug sensitivity score (DSS), CellTiter-Glo (DSS (AUC-based score)); higher = stronger drug effect (viability inhibition or cytotoxicity); extreme values may be limits of the assay", "settings": "incubation time: 72 h", "summary_of_the_method": "as §1"}, "[4]": {"system": "HCC1937", "assay": "drug sensitivity score (DSS), CellTiter-Glo (DSS (AUC-based score)); higher = stronger drug effect (viability inhibition or cytotoxicity); extreme values may be limits of the assay", "settings": "incubation time: 72 h", "summary_of_the_method": "as §1"}, "[5]": {"system": "MDA-MB-436", "assay": "drug sensitivity score (DSS), CellTiter-Glo (DSS (AUC-based score)); higher = stronger drug effect (viability inhibition or cytotoxicity); extreme values may be limits of the assay", "settings": "incubation time: 72 h", "summary_of_the_method": "as §1"}, "[6]": {"system": "CAL-51", "assay": "normalised viability (% of control), CellTiter-Blue; higher = more viable cells (about 100 = DMSO control)", "settings": "100 nM; incubation time: 72 h", "description": "(§2)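 DSRT, CellTiter-Blue viability, 72 h incubation. Signal is normalised to DMSO and benzethonium chloride controls. Value is the normalised response at dose 3.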"}, "[7]": {"system": "CAL-120", "assay": "normalised viability (% of control), CellTiter-Blue; higher = more viable cells (about 100 = DMSO control)", "settings": "1000 nM; incubation time: 72 h", "description": "as §2"}, "[8]": {"system": "HCC1599", "assay": "normalised viability (% of control), CellTiter-Blue; higher = more viable cells (about 100 = DMSO control)", "settings": "1000 nM; incubation time: 72 h", "description": "as §2"}, "[9]": {"system": "MFM-223", "assay": "normalised viability (% of control), CellTiter-Blue; higher = more viable cells (about 100 = DMSO control)", "settings": "1000 nM; incubation time: 72 h", "description": "as §2"}, "[10]": {"system": "MDA-MB-453", "assay": "normalised viability (% of control), CellTiter-Blue; higher = more viable cells (about 100 = DMSO control)", "settings": "100 nM; incubation time: 72 h", "description": "as §2"}, "[11]": {"system": "MDA-MB-231", "assay": "normalised viability (% of control), CellTiter-Blue; higher = more viable cells (about 100 = DMSO control)", "settings": "1000 nM; incubation time: 72 h", "description": "as §2"}, "[12]": {"system": "Hs578T", "assay": "normalised viability (% of control), CellTiter-Blue; higher = more viable cells (about 100 = DMSO control)", "settings": "1000 nM; incubation time: 72 h", "description": "as §2"}, "[13]": {"system": "MDA-MB-436", "assay": "normalised viability (% of control), CellTiter-Blue; higher = more viable cells (about 100 = DMSO control)", "settings": "1000 nM; incubation time: 72 h", "description": "as §2"}, "[14]": {"system": "CAL-51", "assay": "normalised viability (% of control), CellTiter-Blue; higher = more viable cells (about 100 = DMSO control)", "settings": "30 nM; incubation time: 72 h", "summary_of_the_method": "(§3)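 The reported figure is normalised viability at a single listed concentration of the series. Breast cancer cell lines (20 µl suspension) went onto 384-well plates holding compound in 5 µl medium for 72 h. CellTiter-Blue (2.5 µl, 2 h, 37 °C) was read by fluorescence at 560/590 nm, and each plate was scaled to vehicle at 100 and a positive kill control at 0.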"}, "[15]": {"system": "CAL-85-1", "assay": "normalised viability (% of control), CellTiter-Blue; higher = more viable cells (about 100 = DMSO control)", "settings": "30 nM; incubation time: 72 h", "summary_of_the_method": "as §3"}, "[16]": {"system": "CAL-148", "assay": "normalised viability (% of control), CellTiter-Blue; higher = more viable cells (about 100 = DMSO control)", "settings": "30 nM; incubation time: 72 h", "summary_of_the_method": "as §3"}, "[17]": {"system": "HDQ-P1", "assay": "normalised viability (% of control), CellTiter-Blue; higher = more viable cells (about 100 = DMSO control)", "settings": "30 nM; incubation time: 72 h", "summary_of_the_method": "as §3"}, "[18]": {"system": "CAL-120", "assay": "normalised viability (% of control), CellTiter-Blue; higher = more viable cells (about 100 = DMSO control)", "settings": "100 nM; incubation time: 72 h", "summary_of_the_method": "as §3"}, "[19]": {"system": "BT-549", "assay": "normalised viability (% of control), CellTiter-Blue; higher = more viable cells (about 100 = DMSO control)", "settings": "100 nM; incubation time: 72 h", "summary_of_the_method": "as §3"}, "[20]": {"system": "HCC1599", "assay": "normalised viability (% of control), CellTiter-Blue; higher = more viable cells (about 100 = DMSO control)", "settings": "100 nM; incubation time: 72 h", "summary_of_the_method": "as §3"}, "[21]": {"system": "DU-4475", "assay": "normalised viability (% of control), CellTiter-Blue; higher = more viable cells (about 100 = DMSO control)", "settings": "30 nM; incubation time: 72 h", "summary_of_the_method": "as §3"}, "[22]": {"system": "MFM-223", "assay": "normalised viability (% of control), CellTiter-Blue; higher = more viable cells (about 100 = DMSO control)", "settings": "100 nM; incubation time: 72 h", "summary_of_the_method": "as §3"}, "[23]": {"system": "SK-BR-3", "assay": "normalised viability (% of control), CellTiter-Blue; higher = more viable cells (about 100 = DMSO control)", "settings": "100 nM; incubation time: 72 h", "summary_of_the_method": "as §3"}, "[24]": {"system": "MDA-MB-453", "assay": "normalised viability (% of control), CellTiter-Blue; higher = more viable cells (about 100 = DMSO control)", "settings": "30 nM; incubation time: 72 h", "summary_of_the_method": "as §3"}, "[25]": {"system": "BT-474", "assay": "normalised viability (% of control), CellTiter-Blue; higher = more viable cells (about 100 = DMSO control)", "settings": "100 nM; incubation time: 72 h", "summary_of_the_method": "as §3"}, "[26]": {"system": "HCC1937", "assay": "normalised viability (% of control), CellTiter-Blue; higher = more viable cells (about 100 = DMSO control)", "settings": "100 nM; incubation time: 72 h", "summary_of_the_method": "as §3"}, "[27]": {"system": "MDA-MB-231", "assay": "normalised viability (% of control), CellTiter-Blue; higher = more viable cells (about 100 = DMSO control)", "settings": "100 nM; incubation time: 72 h", "summary_of_the_method": "as §3"}, "[28]": {"system": "MDA-MB-468", "assay": "normalised viability (% of control), CellTiter-Blue; higher = more viable cells (about 100 = DMSO control)", "settings": "100 nM; incubation time: 72 h", "summary_of_the_method": "as §3"}, "[29]": {"system": "Hs578T", "assay": "normalised viability (% of control), CellTiter-Blue; higher = more viable cells (about 100 = DMSO control)", "settings": "100 nM; incubation time: 72 h", "summary_of_the_method": "as §3"}, "[30]": {"system": "HCC1143", "assay": "normalised viability (% of control), CellTiter-Blue; higher = more viable cells (about 100 = DMSO control)", "settings": "100 nM; incubation time: 72 h", "summary_of_the_method": "as §3"}, "[31]": {"system": "MDA-MB-436", "assay": "normalised viability (% of control), CellTiter-Blue; higher = more viable cells (about 100 = DMSO control)", "settings": "100 nM; incubation time: 72 h", "summary_of_the_method": "as §3"}}, "data": [{"compound": "Nc1nc(OCc2cc(Br)cs2)c2[nH]cnc2n1", "note": "[Lomeguatrib]", "values": [{"measurement": "drug sensitivity score", "setting": "[1]", "result": 0}, {"measurement": "drug sensitivity score", "setting": "[2]", "result": 0}, {"measurement": "drug sensitivity score", "setting": "[3]", "result": 0}, {"measurement": "drug sensitivity score", "setting": "[4]", "result": 0}, {"measurement": "drug sensitivity score", "setting": "[5]", "result": 0}]}, {"compound": "NS(=O)(=O)OC[C@@H]1C[C@@H](n2ccc3c(N[C@H]4CCc5ccccc54)ncnc32)C[C@@H]1O", "note": "[Pevonedistat]", "values": [{"measurement": "drug sensitivity score", "setting": "[1]", "result": 15.3}, {"measurement": "drug sensitivity score", "setting": "[2]", "result": 0}, {"measurement": "drug sensitivity score", "setting": "[3]", "result": 9.97}, {"measurement": "drug sensitivity score", "setting": "[4]", "result": 2.78}, {"measurement": "drug sensitivity score", "setting": "[5]", "result": 14.2}]}, {"compound": "Cn1c(=O)n(-c2ccc(C(C)(C)C#N)cc2)c2c3cc(-c4cnc5ccccc5c4)ccc3ncc21", "note": "[Dactolisib]", "values": [{"measurement": "drug sensitivity score", "setting": "[1]", "result": 18.6}, {"measurement": "drug sensitivity score", "setting": "[2]", "result": 9.78}, {"measurement": "drug sensitivity score", "setting": "[3]", "result": 13.4}, {"measurement": "drug sensitivity score", "setting": "[4]", "result": 9.76}, {"measurement": "drug sensitivity score", "setting": "[5]", "result": 11.8}]}, {"compound": "Cc1cc2c(C(C)C)c(O)c(O)c(C=O)c2c(O)c1-c1c(C)cc2c(C(C)C)c(O)c(O)c(C=O)c2c1O", "note": "[Gossypol]", "values": [{"measurement": "normalised viability", "setting": "[6]", "result": 96.5, "unit": "%"}, {"measurement": "normalised viability", "setting": "[7]", "result": 112, "unit": "%"}, {"measurement": "normalised viability", "setting": "[8]", "result": 97, "unit": "%"}, {"measurement": "normalised viability", "setting": "[9]", "result": 96.5, "unit": "%"}, {"measurement": "normalised viability", "setting": "[10]", "result": 110, "unit": "%"}, {"measurement": "normalised viability", "setting": "[11]", "result": 93.6, "unit": "%"}, {"measurement": "normalised viability", "setting": "[12]", "result": 100, "unit": "%"}, {"measurement": "normalised viability", "setting": "[13]", "result": 96.2, "unit": "%"}, {"measurement": "normalised viability", "setting": "[14]", "result": 97.1, "unit": "%"}, {"measurement": "normalised viability", "setting": "[15]", "result": 101, "unit": "%"}, {"measurement": "normalised viability", "setting": "[16]", "result": 94.2, "unit": "%"}, {"measurement": "normalised viability", "setting": "[17]", "result": 139, "unit": "%"}, {"measurement": "normalised viability", "setting": "[18]", "result": 109, "unit": "%"}, {"measurement": "normalised viability", "setting": "[19]", "result": 114, "unit": "%"}, {"measurement": "normalised viability", "setting": "[20]", "result": 87.6, "unit": "%"}, {"measurement": "normalised viability", "setting": "[21]", "result": 94.1, "unit": "%"}, {"measurement": "normalised viability", "setting": "[22]", "result": 105, "unit": "%"}, {"measurement": "normalised viability", "setting": "[23]", "result": 106, "unit": "%"}, {"measurement": "normalised viability", "setting": "[24]", "result": 106, "unit": "%"}, {"measurement": "normalised viability", "setting": "[25]", "result": 115, "unit": "%"}, {"measurement": "normalised viability", "setting": "[26]", "result": 116, "unit": "%"}, {"measurement": "normalised viability", "setting": "[27]", "result": 94.1, "unit": "%"}, {"measurement": "normalised viability", "setting": "[28]", "result": 101, "unit": "%"}, {"measurement": "normalised viability", "setting": "[29]", "result": 137, "unit": "%"}, {"measurement": "normalised viability", "setting": "[30]", "result": 115, "unit": "%"}, {"measurement": "normalised viability", "setting": "[31]", "result": 106, "unit": "%"}]}]}
